Measured values published in patent publication US6534035B1, “Methods of inhibiting clot formation” (President and Fellows of Harvard College, priority 1998, dated 2003).
“Also recorded” adds a separate entry of the source. Peptide text beside a SMILES is read from it. * marks the point of attachment. Biotin = O=C1N[C@H]2[C@H](CS[C@H]2CCCCC(=O)*)N1

Tested on: pulmonary emboli
Assay: Crosslinking of α2AP13-24 into pulmonary emboli in vivo
Parameters: species or system ferret
Conditions: 0.5 mM dose of biotinylated peptide after embolization, 4 hours
Experimental: To examine whether FXIIIa which formed thrombi in vivo retained the ability to crosslink substrates, the ferret pulmonary embolism model was used. Clots were formed by combining 45 μl of pooled human fresh frozen plasma with ^125I-labeled fibrinogen (˜100,000 cpm/clot), 2.5 μl of 0.4 M CaCl2, and 2.5 μl thrombin (1000 U/ml). The clots were incubated at 37° C. for 20 minutes, washed three times in saline, and 6 were embolized into the lungs of each animal. Three experimental groups were examined with 2 animals in each group. One group received normal clots and a solution of α2AP13-24 (SEQ ID NO:2) calculated to produce a final peptide concentration of 0.5 mM. Another group also received the same peptide concentration; prior to embolization, the clots in this group were washed in iodoacetamide (10 mg/ml) and EDTA (10 mM final) to inhibit clot associated FXIIIa. The third group received the blood clots but no peptide infusion afterward. Four hours after embolization, the ferrets were sacrificed by CO2 inhalation. The heart, lungs, and great vessels were removed and gamma-counted to locate the pulmonary emboli.
Lung tissue containing pulmonary emboli was localized with a Geiger counter, excised and weighed. […]

Structure (SMILES): CC(C)C[C@H](NC(=O)[C@H](CC(C)C)NC(=O)[C@@H](NC(=O)[C@H](CC(C)C)NC(=O)[C@@H]1CCCN1C(=O)[C@H](CO)NC(=O)[C@@H](NC(=O)[C@H](CCC(N)=O)NC(=O)[C@H](CCC(=O)O)NC(=O)[C@H](CCC(N)=O)NC(=O)[C@@H](N)CC(N)=O)C(C)C)[C@@H](C)O)C(=O)N[C@@H](CCCCNC(=O)CCCC[C@@H]1SC[C@@H]2NC(=O)N[C@@H]21)C(=O)O [α2AP13-24, NQEQVSPLTLLK] (H-NQEQVSPLTLLK(Biotin)-OH)
- incorporation of peptide into existing pulmonary emboli: specific staining was detected in the thrombus; also recorded: covalently incorporated
